Marks after values point to notes of the source that are not given here.
Tested on: red blood cells
Experiment: Gel card agglutination with rabbit anti-acridine sera
Assay type: cell-based
Description: The reduction in modification of red blood cells in the methods of the present invention can be evaluated by several assays. In one assay, rabbit polyclonal sera that is reactive with acridine is produced by injecting New Zealand White rabbits with an acridine compound conjugated to KLH.
This is conjugated to KLH by adding 10 μL of the compound (10 mM in de-ionized water) to 990 μL of a buffered solution of KLH (10 mg/mL in 50 mM Phosphate, 150 mM NaCl, PBS pH=7.2 with proprietary stabilizer, Pierce Cat # 77600) and incubating at room temperature for over 20 hours. Following this incubaton, the conjugated KLH is isolated from the unreacted S-197 and S-197 by-products by passing through a desalting column (e.g. D-salt columns, Pierce) and eluting in PBS buffer. The colored fractions of the solutions are then combined and the KLH conjugates are characterized by the ratio of absorbance at 210 and 410 nm. The acridine-KLH conjugate solutions are mixed with Complete Freund's Adjuvant for intramuscular injection into the rabbits at multiple sites to immunize the rabbits. […] The resulting solution can be assayed for agglutination by passing through a Buffer Gel Card (Micro Typing Systems, Pompano Beach, Fla.). The gel cards are designed to allow non-agglutinated red blood cells to pass through, while cells agglutinated by reaction with the rabbit sera and cross reacting with the anti-rabbit antibody will remain at the top of the gel. The cards are scored as 0, 1+, 2+, 3+, or 4+, where 0 indicates all cells are intact and are at the bottom of the gel, while 4+ indicates complete agglutination, with all cells at the top of the gel.
In these, the appropriate amount of 600 mM stock was added, mixed with an appropriate volume of 8% dextrose to provide the same volume addition to each RBC sample where in one study, with varied glutathione concentrations, the pH was measured after adding glutathione and after adding PIC-1. […] Similar samples were also assessed for the inactivation of S. epidermidis. […] For gel card analysis, after incubation, the RBC were washed in BBS and were diluted in BBS to a final hematocrit of 4%. A 25 μL aliquot of each was mixed with 15 μL of rabbit polyclonal anti-acridine sera diluted either 1:4 or 1:100 in BBS and the mixture was incubated at 37° C. for 30 minutes. The cells were subsequently washed with 1.5 mL BBS. […]
Heterophile antibodies are naturally occurring antibodies that recognize RBC from another species in a non-specific fashion. […] All samples were mixed with quencher first, then PIC-1 at 0.2 mM.
The standard condition was included, i.e. 0.2 mM PIC-1 and 2 mM acidic glutathione added together.

## O=C(CCNc1c2ccccc2nc2ccccc12)OCCN(CCCl)CCCl [PIC-1]
Table 11A samples, rabbit sera 1:4, all samples
  Gel card score: 4+
Table 11B: 2 mM GSH, 1 eq. base, 0.2 mM PIC-1, sera 1:100, secondary 1:4
  Gel card score: 4+
Table 11B: 2 mM GSH, 2 eq. base, 0.2 mM PIC-1, sera 1:100, secondary 1:4
  Gel card score: 3+
Table 11B: 2 mM GSH, no added base, 0.2 mM PIC-1, sera 1:100, secondary 1:4
  Gel card score: 3+
Table 11B: 5 mM GSH, 1 eq. base, 0.2 mM PIC-1, sera 1:100, secondary 1:4
  Gel card score: 3+
Table 11B: 5 mM GSH, 2 eq. base, 0.2 mM PIC-1, sera 1:100, secondary 1:4
  Gel card score: 2+
Table 11B: 5 mM GSH, no added base, 0.2 mM PIC-1, sera 1:100, secondary 1:4
  Gel card score: 3+/MX*
Table 11B: 10 mM GSH, 1 eq. base, 0.2 mM PIC-1, sera 1:100, secondary 1:4
  Gel card score: 2+
Table 11B: 10 mM GSH, 2 eq. base, 0.2 mM PIC-1, sera 1:100, secondary 1:4
  Gel card score: 1+
Table 11B: 10 mM GSH, no added base, 0.2 mM PIC-1, sera 1:100, secondary 1:4
  Gel card score: 3+/MX*
Table 11B: 20 mM GSH, 1 eq. base, 0.2 mM PIC-1, sera 1:100, secondary 1:4
  Gel card score: 1+
Table 11B: 20 mM GSH, 2 eq. base, 0.2 mM PIC-1, sera 1:100, secondary 1:4
  Gel card score: 0
Table 11B: 20 mM GSH, no added base, 0.2 mM PIC-1, sera 1:100, secondary 1:4
  Gel card score: 3+
Table 12: 2 mM acidic GSH, 0.2 mM PIC-1, sera 1:4, no secondary Ab
  Gel card score: 3+
Table 12: 2 mM acidic GSH, 0.2 mM PIC-1, sera 1:4, secondary Ab 1:4
  Gel card score: 4+
Table 12: 2 mM acidic GSH, 0.2 mM PIC-1, sera 1:100, no secondary Ab
  Gel card score: 0
Table 12: 2 mM acidic GSH, 0.2 mM PIC-1, sera 1:100, secondary Ab 1:4
  Gel card score: 4
Table 12: 5 mM Cys 1eq, 0.2 mM PIC-1, sera 1:4, no secondary Ab
  Gel card score: 1+
Table 12: 5 mM Cys 1eq, 0.2 mM PIC-1, sera 1:4, secondary Ab 1:4
  Gel card score: 4+
Table 12: 5 mM Cys 1eq, 0.2 mM PIC-1, sera 1:100, no secondary Ab
  Gel card score: 0
Table 12: 5 mM Cys 1eq, 0.2 mM PIC-1, sera 1:100, secondary Ab 1:4
  Gel card score: 1*
Table 12: 10 mM Cys 1eq, 0.2 mM PIC-1, sera 1:4, no secondary Ab
  Gel card score: 0
Table 12: 10 mM Cys 1eq, 0.2 mM PIC-1, sera 1:4, secondary Ab 1:4
  Gel card score: 3+
Table 12: 10 mM Cys 1eq, 0.2 mM PIC-1, sera 1:100, no secondary Ab
  Gel card score: 0
Table 12: 10 mM Cys 1eq, 0.2 mM PIC-1, sera 1:100, secondary Ab 1:4
  Gel card score: 0
Table 12: 15 mM Cys 1eq, 0.2 mM PIC-1, sera 1:4, no secondary Ab
  Gel card score: 0
Table 12: 15 mM Cys 1eq, 0.2 mM PIC-1, sera 1:4, secondary Ab 1:4
  Gel card score: 1*
Table 12: 15 mM Cys 1eq, 0.2 mM PIC-1, sera 1:100, no secondary Ab
  Gel card score: 0
Table 12: 15 mM Cys 1eq, 0.2 mM PIC-1, sera 1:100, secondary Ab 1:4
  Gel card score: 0
Table 12: 20 mM Cys 1eq, 0.2 mM PIC-1, sera 1:4, no secondary Ab
  Gel card score: 0
Table 12: 20 mM Cys 1eq, 0.2 mM PIC-1, sera 1:4, secondary Ab 1:4
  Gel card score: 0
Table 12: 20 mM Cys 1eq, 0.2 mM PIC-1, sera 1:100, no secondary Ab
  Gel card score: 0
Table 12: 20 mM Cys 1eq, 0.2 mM PIC-1, sera 1:100, secondary Ab 1:4
  Gel card score: 0
Table 12: 20 mM GSH 2eq, 0.2 mM PIC-1, sera 1:4, no secondary Ab
  Gel card score: 0
Table 12: 20 mM GSH 2eq, 0.2 mM PIC-1, sera 1:4, secondary Ab 1:4
  Gel card score: 3+
Table 12: 20 mM GSH 2eq, 0.2 mM PIC-1, sera 1:100, no secondary Ab
  Gel card score: 0
Table 12: 20 mM GSH 2eq, 0.2 mM PIC-1, sera 1:100, secondary Ab 1:4
  Gel card score: 0
Table 12: […] Cys 1eq, 0.2 mM PIC-1, sera 1:4, no secondary Ab
  Gel card score: 2+
Table 12: […] Cys 1eq, 0.2 mM PIC-1, sera 1:4, secondary Ab 1:4
  Gel card score: 4+
Table 12: […] Cys 1eq, 0.2 mM PIC-1, sera 1:100, no secondary Ab
  Gel card score: 0
Table 12: […] Cys 1eq, 0.2 mM PIC-1, sera 1:100, secondary Ab 1:4
  Gel card score: 3
Table 13: 0.2 mM PIC-1 no quencher, blood sample 1, sera 1:4
  Gel card score: 4+
Table 13: 0.2 mM PIC-1 no quencher, blood sample 1, sera 1:100
  Gel card score: 4+
Table 13: 0.2 mM PIC-1 no quencher, blood sample 2, sera 1:4
  Gel card score: 4+
Table 13: 0.2 mM PIC-1 no quencher, blood sample 2, sera 1:100
  Gel card score: 4+
Table 13: 2 mM acidic GSH, 0.2 mM PIC-1, blood sample 1, sera 1:4
  Gel card score: 4+
Table 13: 2 mM acidic GSH, 0.2 mM PIC-1, blood sample 1, sera 1:100
  Gel card score: 4+
Table 13: 2 mM acidic GSH, 0.2 mM PIC-1, blood sample 2, sera 1:4
  Gel card score: 4+
Table 13: 2 mM acidic GSH, 0.2 mM PIC-1, blood sample 2, sera 1:100
  Gel card score: 4+
Table 13: 5 mM GSH 2eq/15 mM Cys 1eq, 0.2 mM PIC-1, blood sample 1, sera 1:4
  Gel card score: 2

Source: patent US7655392B2, “Quenching methods for red blood cell inactivation process” (priority 2004, dated 2010)
